Usually Kd stands for the concentration at which binding is half-saturated. A high value points to a looser complex.

The target in this assay is ARL3 (Homo sapiens, UniProt P36405). Description: microscale thermophoresis (Monolith NT.[…]). The format is binding. On the technique in general: MST reads how a fluorescent partner responds to local heating, with and without ligand.
Sequence of ARL3 (P36405 2-182): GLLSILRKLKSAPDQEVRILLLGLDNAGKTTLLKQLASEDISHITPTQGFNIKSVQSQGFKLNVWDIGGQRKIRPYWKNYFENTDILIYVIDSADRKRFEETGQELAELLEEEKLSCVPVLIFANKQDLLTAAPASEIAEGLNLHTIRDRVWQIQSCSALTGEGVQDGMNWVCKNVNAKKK

The molecule `Cc1c(-c2ccc(N3CCc4cccc(C(=O)Nc5nc6ccccc6s5)c4C3)nc2C(=O)O)cnn1CC12CC3CC(CC(C3)C1)C2` [A-1331852] showed a Kd of 12 µM.

Source of the values: publication PMC12713097, “ARL3 Enhances ERα Stability via USP10 Deubiquitination to Promote Endocrine Resistance and Drive Mitochondrial Metabolic Reprogramming in HR+ Breast Cancer” (Advanced Science, 2025).
